Measurements taken from paper PMC10895676, “Antiviral Activity of Lipophilic Nucleoside Tetraphosphate Compounds” (Journal of Medicinal Chemistry, 2024).
“Also recorded” adds a separate entry of the source.

Legend:
HIV-RT = target: T1, HIV-RT (Human immunodeficiency virus type 1 group M subtype B, UniProt P03366); test: Primer extension assay using HIV-RT; type: biochemical; conditions: 30 min, 6 U HIV-RT, 37 °C
T1 construct: HIV-RT HIV reverse transcriptase; purchased Roboklon
Method: (§1) Figure 6 Primer extension assay using HIV-RT (A), human polymerases α (B), β (C), and γ (D). (Figure 6A). Primer extension assay using HIV-RT (30 min, 6U). Lane 1: (+) dATP, dCTP, dGTP, and TTP with HIV-RT. Lane 2: (−) dATP, dCTP, dGTP, and TTP without HIV-RT. Lane 3: TTP. […] Lane 5: δ-(C4; C18)-d4T4P 4d. […] Lane 7: δ-(C18)-d4T4P 20. Lane 8: δ-C-(C18)-d4T4P 24. Lane 9: d4T4P. Lane 10: d4TTP. Lane 11: d4TDP. HIV-RT assay reaction conditions: 50 mM Tris–HCl (pH 8.6), 10 mM MgCl2, 40 mM KCl, 250 μM dNTPs, HIV-RT (6 U), 0.20 μM DNA hybrid, primer-template-hybrid 0.32 mM in a reaction volume of 10 μL, incubated at 37 °C for 0.5 h, 80 °C for 7 min. Primer extension assays: 50 mA, 45 w for 4 h. (Figure 6B). For human DNA polymerase α assay (60 min, 2 U): Lane 1: (+) dATP, dCTP, dGTP, and TTP with human polymerase α. Lane 2: (−) dATP, dCTP, dGTP, and TTP without human polymerase α. Lane 3: TTP. […] Lane 5: δ-(C4; C18)-d4T4P 4d. […] Lane 7: δ-(C18)-d4T4P 20. Lane 8: δ-C-(C18)-d4T4P 24. Lane 9: d4T4P. Lane 10: d4TTP. Human DNA polymerase α assay conditions: 60 mM Tris–HCl (pH 8), 5 mM Mg(OAc)2, 100 mM KCl, 1.0 mM dithiothreitol, 0.1 mM spermine, 0.01% (w/v) bovine serum albumin, 250 μM dNTPs, 2 U human polymerase α, 0.20 μM DNA hybrid, and primer-template-hybrid 0.32 mM in a reaction volume of 10 μL, incubated at 37 °C for 1 h, 80 °C for 7 min. Primer extension assays: 50 mA, 45 w for 3 h. (Figure 6C). For human DNA polymerase β assay (60 min, 2 U): Lane 1: (+) dATP, dCTP, dGTP, and TTP with human polymerase β. Lane 2: (−) dATP, dCTP, dGTP, and TTP without human polymerase β. Lane 3: TTP. […] Lane 5: δ-(C4; C18)-d4T4P 4d. […] Lane 7: δ-(C18)-d4T4P 20. Lane 8: δ-C-(C18)-d4T4P 24. Lane 9: d4T4P. Lane 10: d4TTP. Human DNA polymerase β assay conditions: 50 mM Tris–HCl (pH 8.7), 10 mM Mg(OAc)2, 100 mM KCl, 1.0 mM dithiothreitol, 0.1 mM spermine, 0.01% (w/v) bovine serum albumin, 15% glycerol, 250 μM dNTPs, 2 U human DNA polymerase β, 0.20 μM DNA hybrid, and primer-template-hybrid 0.32 mM in a reaction volume of 10 μL, incubated at 37 °C for 1 h, 80 °C for 7 min. Primer extension assays: 50 mA, 45 w for 3 h. (Figure 6D), For the human DNA polymerase γ assay (120 min, 2 U): Lane 1: (+) dATP, dCTP, dGTP, and TTP with human polymerase γ. Lane 2: (−) dATP, dCTP, dGTP, and TTP without human polymerase γ. Lane 3: TTP. […] Lane 5: δ-(C4; C18)-d4T4P 4d. […] Lane 7: δ-(C18)-d4T4P 20. Lane 8: δ-C-(C18)-d4T4P 24. Lane 9: d4T4P. Lane 10: d4TTP. Human polymerase γ assay conditions: 60 mM Tris–HCl (pH 8), 5 mM Mg(OAc)2, 1.0 mM dithiothreitol, 0.1 mM spermine, 0.01% (w/v) bovine serum albumin, 250 μM dNTPs, 2 U human polymerase γ, 0.5 μM MnCl2, 0.20 μM DNA hybrid, primer-template-hybrid 0.32 mM in a reaction volume of 10 μL, incubated at 37 °C for 2 h, 80 °C for 7 min. Primer extension assays: 50 mA, 45 w for 3 h.
HIV-RT and human polymerases α, β, and γ were bought from Roboklon and Chimerx. The fluorescent-labeled primer and template were obtained from Metabion.
For the annealing of the primer/template mixture, 40 μL of the 10 μM primer and 60 μL of the 10 μM template were incubated for 5 min at 95 °C. Then, for optimal annealing, the temperature was reduced over a period of 2 h to 20 °C and incubated again for 20 min at 20 °C.
For the primer extension, the reaction mixture was incubated for 30 min for the HIV-RT, 60 min for the human DNA polymerase α, and 120 min for the human DNA polymerases β and γ at 37 °C, followed by 7 min at 80 °C.

HIV-1 (HE) = test: Anti-HIV replication assay, HIV-1 (HE) in wild-type CEM/0 cells; type: cell-based; conditions: Human immunodeficiency virus 1, CCRF-CEM, read-out: HIV-1 (HE) EC50
Method: (§2) Inhibition of HIV-1(HE)- and HIV-2(ROD)-induced cytopathogenicity in wild-type CEM/0 CEM CD4^+ T-cells and thymidine kinase-deficient CEM/TK^– cell cultures was measured in microtiter 96-well plates containing ∼3 × 10^5 CEM cells/mL infected with 100 CCID50 of HIV per milliliter and containing appropriate dilutions of the test compounds. After 4–5 days of incubation at 37 °C in a CO2-controlled humidified atmosphere, virus-induced cellular effects and syncytia cell formation were examined microscopically. The EC50 (50% effective concentration) was defined as the compound concentration required to inhibit HIV-induced giant cell formation by 50%.

HIV-2 (ROD) [1] = test: Anti-HIV replication assay, HIV-2 (ROD) in thymidine kinase-deficient CEM/TK– cells; type: cell-based; conditions: Human immunodeficiency virus 2, CEM-TK(-), read-out: CEM/TK– HIV-2 (ROD) EC50
Method: as §2, with “microscopically.” for “microscopically. The EC50 (50% effective concentration) was defined as the compound concentration required to inhibit HIV-induced giant cell formation by 50%.”

[2] = Cytotoxicity, inhibition of CEM cell proliferation; type: cell-based; conditions: human, CEM cells (CD4+ T-cells), read-out: toxicity CC50
[3] = Chemical hydrolysis in aqueous buffers (PBS pH 7.3 / 8.0, citrate buffer pH 2.0), RP18-HPLC; type: physicochemical; conditions: phosphate buffered saline; 25 mM PBS, pH 7.3, 37 °C; read-out: PBS pH 7.3 t1/2 (converted)
Method: All metabolite mixtures were analyzed and quantified by means of analytical RP18-HPLC (UV detection).
The solution was incubated at 37 °C in a thermomixer. […] for each extraction and stored at −30 °C. When testing, samples were warmed up to room temperature, and 25 or 20 μL of the liquid was taken and injected into the analytical RP-18-HPLC instrument. Further aliquots were taken for monitoring the kinetic hydrolysis.
5.88 g of citric acid and 3.58 g of NaCl were dissolved in 82 mL of hydrochloric acid (0.1 mol/L). Then, sodium hydroxide was added to adjust the pH to 2.0.

[4] = Cytotoxicity, inhibition of CEM/TK– cell proliferation; type: cell-based; conditions: human, CEM/TK– cells (CD4+ T-cells), read-out: toxicity CC50
human DNA polymerase β = target: T2, human DNA polymerase β (Homo sapiens, UniProt P06746); test: Primer extension assay using human DNA polymerase β; type: biochemical; conditions: 60 min, 2 U, 37 °C
T2 construct: purchased Chimerx
Excerpt: Encouraged by the previously obtained results that γ-phosphate-modified-d4TDPs 3, γ-monoalkylated d4TTP derivatives as well as d4TDP were accepted as substrates by HIV-RT,[49],[50],[55],[59]−[61] δ-dialkylated d4T tetraphosphate analogues 4,5, δ-monoalkylated d4T tetraphosphate analogues 20 and 24 and d4T4P were investigated in primer extension assays in the presence of HIV-RT or the three different human DNA polymerases α, β and γ. D4TTP (for the compounds 4–9) and the natural thymidine triphosphate (TTP) were used as reference compounds.
as §1
HIV-RT and human polymerases α, β, and γ were bought from Roboklon and Chimerx. The fluorescent-labeled primer and template were obtained from Metabion. […]

HIV-2 (ROD) [5] = test: Anti-HIV replication assay, HIV-2 (ROD) in wild-type CEM/0 cells; type: cell-based; conditions: Human immunodeficiency virus 2, CCRF-CEM, read-out: HIV-2 (ROD) EC50
Method: as §2, with “microscopically.” for “microscopically. The EC50 (50% effective concentration) was defined as the compound concentration required to inhibit HIV-induced giant cell formation by 50%.”

Row | Structure (SMILES) | substrate for HIV-RT (primer extension) (HIV-RT) | EC50 (HIV-1 (HE)) | EC50 (HIV-2 (ROD) [1]) | CC50 [2] | half-life at 1.9 mM [3] | CC50 [4] | substrate for human DNA polymerase β (primer extension) (human DNA polymerase β) | EC50 (HIV-2 (ROD) [5])
1 | Cc1cn(C2C=CC(COP(=O)(O)OP(=O)(O)O)O2)c(=O)[nH]c1=O (stereo not shown) [d4TDP, reference compound] | good substrates |  |  |  |  |  |  | 
2 | CCCCOP(=O)(OCCCC)OP(=O)(O)OP(=O)(O)OP(=O)(O)OC[C@@H]1C=C[C@H](n2cc(C)c(=O)[nH]c2=O)O1 [4a, δ-(Alkyl-C4; alkyl-C4)-d4T4P] |  | 0.22 ± 0.13 µM | 14.8 ± 2.8 µM | > 100 µM | 167 h | > 100 µM | substrate | 0.16 ± 0.04 µM
3 | Cc1cn([C@H]2C=C[C@@H](COP(=O)(O)OP(=O)(O)OP(=O)(O)O)O2)c(=O)[nH]c1=O [d4TTP, d4T triphosphate, reference compound] | incorporation of d4TMP was detected; also recorded: good substrates |  |  |  |  |  | substrate | 
